Measurements published in patent US20060094674A1, “Combination of mtor inhibitor and a tyrosine kinase inhibitor for the treatment of neoplasms” (priority 2002, published 2006).
Where two headings read alike, the source gives them in different places.

What was measured:
[1] = tested on: bone marrow cells transduced with BCR/ABL-expressing retroviruses; assay: BCR/ABL-evoked myeloid colony formation assay; type: cell-based, mice; conditions: rapamycin 2 nM, Imatinib 0.5 μM, UO126 2 μM alone, or all three combined; 10 days
[2] = tested on: BCR/ABL-transformed primary B-lymphoblast cells; conditions: 24 hours, Imatinib 1 μM, Rapamycin 10 nM; for % of viable cells in phase: G1 / % of viable cells in phase: G2/M / % of viable cells in phase: S / Total % Apoptotic: UO126 5 μM; for Total % Apoptotic: sub-G1 DNA content
Experimental: For cell cycle and apoptosis assays, live cells from randomly growing BCR/ABL-transformed B-lymphoblasts were isolated using Histopaque (Sigma). After washing twice, the cells were resuspended in regular growth medium (RPMI-containing 20% FCS and 50 μM 2-mercaptoethanol), exposed to inhibitors at the indicated concentrations for 24 hours, harvested and fixed in 70% ethanol, for 3 hours at −20 C. Fixed cells were stained with propidium iodide, and cell cycle parameters were analyzed by using FACScan and Modfit LT software.
3 million cells in media as described above and treated with the indicated drugs or left untreated for 24 hours, were fixed, stained with propidium iodide and subject to flow cytometry for cell cycle analysis.

Ba/F-BCR/ABL T315I cells = assay: [3H]-thymidine proliferation assay, Imatinib-resistant Ba/F-BCR/ABL T315I cells; conditions: 48 hours
K562 cells = assay: [3H]-thymidine proliferation assay, K562 cells; type: cell-based, human; conditions: rapamycin alone, 5 nM; 60 hours
Erk1/2 kinases [3] = conditions: 18 hours; indicated concentrations
Experimental: (§1) Cells were lysed in a buffer containing Tris-HCl (50 mM, pH 8.0), NaCl (150 mM), NP40 (1% v/v), NaF (10 mM), 2 mM sodium orthovanadate and a cocktail of protease inhibitors, as described previously (Gu et al., Mol. Cell. Biol. 20:7109 (2000)). Cell lysates containing equivalent amounts of protein ([…]) were loaded and separated by SDS-PAGE. Immunoblotting was performed using phospho-specific antibodies reactive with Thr389 of p70 S6K, Ser65 of 4E-BP1 or Thr202/Tyr204 of p44/42 Erk (Cell Signaling Technology, Beverly, Ma.). Detection was by enhanced chemiluminescence (ECL). To control for equal loading, blots were reprobed with antibodies that detect total Erk2 or p70 S6K (Santa Cruz Biotechnology).
(§2) Cell lysates were prepared and equal amounts (50 μg) of protein were resolved by SDS-PAGE followed by immunoblot analysis with the indicated phospho-specific antibodies. To control for loading, the blots were stripped and reprobed with anti-Erk2 antibodies.

p70 S6K [4] = conditions: rapamycin 0.5-5 nM; 18 hours
Experimental: as §1, §2

p70 S6K [5] = tested on: p70 S6K
Experimental: as §1, §2

4E-BP1 [6] = conditions: Imatinib 0.5-4 μM or rapamycin 5 nM alone, or combined
Experimental: as §1

Erk1/2 kinases [7] = conditions: 18 hours; indicated concentrations; remark: listed apart in the source
Experimental: as §1, §2

4E-BP1 [8] = assay: Immunoblot of 4E-BP1 phosphorylation in Ba/F-FLT3-ITD cells; type: cell-based
Experimental: as §1
The blots were reprobed for p70 S6 kinase and Erk2, respectively, to ensure equivalent loading.

[9] = tested on: PTEN-positive human prostate cancer cells (CWR22); assay: Proliferation (cell number, hemocytometer) of CWR22 cells; type: cell-based; conditions: rapamycin at indicated concentrations alone or with Imatinib 2 μg/ml; 7 days
Experimental: PTEN-positive human prostate cancer cells (CWR22) were seeded at 30,000 cells per 6-well cluster (35 mm plate). […] Media was changed every 2 days with fresh drugs. After 7 days, cell number was determined by hemocytometer (see FIG. 9).

[10] = tested on: PTEN-negative human prostate cancer cells (LnCaP); assay: Proliferation (cell number, hemocytometer) of LnCaP cells; type: cell-based; conditions: rapamycin at indicated concentrations alone or with Imatinib 2 μg/ml; 7 days
Experimental: PTEN-negative human prostate cancer cells (LnCaP) were seeded at 30,000 cells per 6-well cluster (35 mm plate). […] Media was changed every 2 days with fresh drugs. After 7 days, cell number was determined by hemocytometer (see FIG. 10).

[11] = tested on: murine BCR/ABL disease model; assay: Survival in mouse model of CML (BCR/ABL bone marrow transplantation); type: in vivo, BALB/C mice
Experimental: BALB/C donor mice were primed with intraperitoneal injection of 5′ fluorouracil (150 mg/kg). After 5 days, bone marrow cells were collected and transduced with MSCV p210 (BCR/ABL)-IRES-GFP viruses by two rounds of spinfection. After second round of transduction, cells were resuspended in Hanks balanced salt solution and injected (1×10^6 cells/0.5 ml) into the lateral tail vein of lethally irradiated (2×450 cGy) female recipient BALB/C mice. […] All animals in the trial received two gavage treatments and one IP treatment per 24 hours. Treatment was started from day 9 after bone marrow transplantation (BMT) and continued until the mice died. The log rank statistics were used to attach a significance level to the difference in the survival curves.
These mice were censored from the statistical analysis of survival. Peripheral blood was collected from the retroorbital cavity using a heparinized glass capillary. Blood smears were stained with Wright and Giemsa. Manual and automated (ADIVA 120 Hematology system, Bayer) total and differential blood cell counts were performed, as well as histopathologic exam of relevant organs (spleen, liver, heart, lungs, intestine, hindlimb bones, and kidneys). […]

[12] = tested on: BCR/ABL-transformed primary B lymphoblasts; conditions: 24 hours; rapamycin 0.25-10 nM alone; Imatinib 0.25-4 μM alone or in combination with rapamycin 2 nM
Ba/F-BCR/ABL WT cells = conditions: rapamycin 5 nM; 48 hours of exposure
[13] = tested on: Ba/F-FLT3-ITD F691I cells
Experimental: (§3) Cell proliferation was measured by a [^3H]-thymidine incorporation assay (see FIG. 6C).

[14] = achieved in transplant patients; cited from earlier work
[15] = tested on: Ba/F-FLT3-ITD F691I cells; conditions: 48 hours; PKC412 10 nM alone; two-drug combinations at indicated concentrations
Experimental: as §3

N#CC(=C(/N)Sc1ccccc1N)/C(C#N)=C(/N)Sc1ccccc1N [UO126]
inhibition of BCR/ABL-evoked myeloid colony formation [1]: 16% | % of viable cells in phase: G1 [2]: 44.6% | % of viable cells in phase: G2/M [2]: 3.8% | % of viable cells in phase: S [2]: 51.6% | Total % Apoptotic [2]: 4.6% | inhibition of proliferation (Ba/F-BCR/ABL T315I cells; UO126 5 μM, Imatinib 0.5 μM, rapamycin 5 nM, alone or in combinations): only modest inhibitory effects

Rapamycin
inhibition of [3H]-thymidine incorporation (K562 cells): ~25% | inhibition of Erk activation (Erk1/2 kinases [3]): did not inhibit Erk activation | inhibition of p70 S6K activation (p70 S6K [4]): almost completely inhibited activation of p70 S6K | inhibition of p70 S6K phosphorylation (p70 S6K [5]; rapamycin 5 nM): totally inhibited p70 S6K phosphorylation | inhibition of p70 S6K activation (p70 S6K [5]; rapamycin 0.5-5 nM, 18 hours): almost completely inhibited activation of p70 S6K | inhibition of 4E-BP1 phosphorylation (4E-BP1 [6]): partial inhibition of 4E-BP1phosphorylation | inhibition of Erk activation (Erk1/2 kinases [7]): did not inhibit Erk activation | resistance of 4E-BP1 phosphorylation to rapamycin relative to p70 S6K (4E-BP1 [8]): > 10 fold | inhibitory effect on proliferation of prostate cancer cells [9]: significant inhibitory effect on proliferation | inhibitory effect on proliferation of prostate cancer cells [10]: significant inhibitory effect on proliferation | survival versus double placebo, p (log rank) ([11]; Rapamycin 7.0 mg/kg/day intraperitoneal or Imatinib 70 mg/kg/day oral gavage, each plus placebo): 0.04 | survival ([11]; Rapamycin 7.0 mg/kg/day intraperitoneal, Imatinib 70 mg/kg/day oral gavage, from day 9 after BMT): survived longer than those treated with double placebo | inhibition of cell proliferation ([3H]-thymidine incorporation) [12]: inhibited the proliferation of these cells at doses significantly below typical serum levels | inhibition of proliferation (Ba/F-BCR/ABL WT cells): ~60% | inhibition [13]: 68% | % of viable cells in phase: G1 [2]: 79.9% | % of viable cells in phase: G2/M [2]: 1.8% | % of viable cells in phase: S [2]: 18.3% | Total % Apoptotic [2]: 8.6% | effect on cell cycle and apoptosis ([2]; alone or combined): G1 arrest, but no significant apoptosis | typical serum levels [14]: 5 to 15 nM | inhibition of proliferation (Ba/F-BCR/ABL T315I cells; rapamycin 5 nM alone): about 70%

CO[C@@H]1[C@H](N(C)C(=O)c2ccccc2)C[C@H]2O[C@]1(C)n1c3ccccc3c3c4c(c5c6ccccc6n2c5c31)C(=O)NC4 [PKC412]
effect on cell proliferation [15]: almost no effect
